From patent US20170356126A1, “LIQUID FILM CLEAVAGE AGENT” (Kao Corporation, priority 2014, published 2017)

Experimental: Further, the water solubility is considered to be applied also to menstrual blood, urine or the like which contains water as a main component.
Specifically, the agent is added for every 0.0001 g, and the measurement is performed.
These numerical values were measured by the above-mentioned measuring method. […] Moreover, the water solubility was measured by adding the agent for every 0.0001 g.

Water solubility of the above agent: 0.0001 g
Substance: dimethyl silicone oil [Comparative Example 2, reference compound]
